Data: patent US11358931B2, “Selective androgen receptor modulators (SARMs) and uses thereof” (priority 2007, dated 2022)
Read-outs that look alike come from different tables or passages of the source.

How the values were obtained:
[1] = molecular target: endogenous human androgen receptor (hAR) (Homo sapiens, UniProt P10275); assay: Activation of hAR-responsive luciferase reporter in MDA-MB-453 cells; type: cell-based
Experimental: A functional assay was conducted to determine the ability of test substances to modulate gene expression via endogenous human androgen receptor (hAR) in a human cell line. A luciferase reporter assay was utilized to establish the ability of test compounds to activate hAR-regulated gene expression in a human cell line containing endogenously expressed hAR (MDAMB-453 cells) transfected with an androgen-responsive luciferase reporter plasmid containing the cDNA for firefly luciferase. MDA-MB-453 cells were transfected with a plasmid containing the cDNA for firefly luciferase (LUC) under the control of a conditional promoter containing hormone response elements recognized by AR (MMTV-LUC) and a P-galactosidase expression plasmid (pRS-(3-Gal) for normalization of transfection efficiency. The reporter plasmid MMTVLUC contains the mouse Mammary Tumor Virus (MMTV) Long Terminal Repeat (LTR) conditional promoter containing hormone response elements recognized by hAR. The luciferase response was calculated as: Luciferase response/β-gal rate where
Luciferase response=Relative Luciferase Units (RLU) and
β-gal rate=β-gal 0.D.415/β-Gal incubation time in minutes.
The mean of the normalized response at each concentration of compound was calculated. The effective concentration that produced 50% of the maximum response (EC50) was determined for each compound by interpolation between two concentrations spanning the midpoint of the concentration-response curve. Agonist efficacy for test compounds was calculated as a percent of normalized response relative to the maximum normalized response by the reference agonist DHT.

[2] = tested on: human skeletal α-actin promoter activity; assay: Skeletal α-actin promoter assay (C2C12 cells transfected with human AR); type: cell-based; details: for EC50: C2C12, read-out: EC50, activation of skeletal α-actin promoter; for efficacy, % of DHT: C2C12 mouse muscle cells
From the text: An exemplary assay for measuring AR-mediated gene expression in mouse muscle cells is the human skeletal α-actin assay. A mouse muscle cell line (C2C12, obtained from American Type Cell Culture (ATCC, Rockville, Md.)) can be used in the luciferase reporter assay. An SK α-actin-LUC reporter plasmid is constructed by inserting the skeletal α-actin promoter sequence into a luciferase reporter vector (e.g., by cloning the human skeletal α-actin promoter region from −77 to +202 bp from human liver genomic DNA (Clontech, Palo Alti, Calif.) and inserting the sequence into a pGL3-Basic reporter plasmid (Promega, Madison, Wis.)). The C2C12 cell line can be transiently transfected with a human AR expression plasmid and a luciferase reporter plasmid containing the skeletal α-actin promoter upstream of the luciferase cDNA. The compounds to be tested are added to the cells after transfection and after 24 hours of incubation, the cells are lysed with a detergent-containing buffer and assayed for luciferase activity.
Compound 102 was tested to determine its ability to activate human skeletal α-actin using the skeletal α-actin promoter assay. A mouse muscle cell line (C2C12) was transiently transfected with a human AR expression plasmid and a luciferase reporter plasmid containing the skeletal α-actin promoter upstream of the luciferase cDNA. C2C12 cells (at a concentration of 5×10^5) were seeded in a T25 flask and cultured for 24 hours. The cells were harvested by using trypsin and seeded at 6000 cells/well in 96-well plates. The same day, a non-liposomal formulation, FuGENE 6 reagent (Roche, Indianapolis, Ind.) was used for transfection of the cells. To each well was added 45.5 ng of the skeletal α-actin-LUC reporter plasmid, 4.55 ng pRShAR and 5 ng pRS-BG as carrier DNA. Twenty-four hours after transfection, different concentrations of the solvated compound (10^−10 to 10^−6 M) were added in triplicate to the cells and the cells were incubated for 24 hours. The medium was aspirated and the cells were lysed with a detergent-containing buffer. After addition of Luciferase Assay Buffer to each well, the cells were assayed for luciferase activity using a luminometer to determine the level of transcriptional activation.

[3] = MDA-MB-453 cells, MMTV-LUC; read-out: EC50, activating hAR-responsive luciferase reporter

endogenous human androgen receptor (hAR), sequence (P10275 whole entry): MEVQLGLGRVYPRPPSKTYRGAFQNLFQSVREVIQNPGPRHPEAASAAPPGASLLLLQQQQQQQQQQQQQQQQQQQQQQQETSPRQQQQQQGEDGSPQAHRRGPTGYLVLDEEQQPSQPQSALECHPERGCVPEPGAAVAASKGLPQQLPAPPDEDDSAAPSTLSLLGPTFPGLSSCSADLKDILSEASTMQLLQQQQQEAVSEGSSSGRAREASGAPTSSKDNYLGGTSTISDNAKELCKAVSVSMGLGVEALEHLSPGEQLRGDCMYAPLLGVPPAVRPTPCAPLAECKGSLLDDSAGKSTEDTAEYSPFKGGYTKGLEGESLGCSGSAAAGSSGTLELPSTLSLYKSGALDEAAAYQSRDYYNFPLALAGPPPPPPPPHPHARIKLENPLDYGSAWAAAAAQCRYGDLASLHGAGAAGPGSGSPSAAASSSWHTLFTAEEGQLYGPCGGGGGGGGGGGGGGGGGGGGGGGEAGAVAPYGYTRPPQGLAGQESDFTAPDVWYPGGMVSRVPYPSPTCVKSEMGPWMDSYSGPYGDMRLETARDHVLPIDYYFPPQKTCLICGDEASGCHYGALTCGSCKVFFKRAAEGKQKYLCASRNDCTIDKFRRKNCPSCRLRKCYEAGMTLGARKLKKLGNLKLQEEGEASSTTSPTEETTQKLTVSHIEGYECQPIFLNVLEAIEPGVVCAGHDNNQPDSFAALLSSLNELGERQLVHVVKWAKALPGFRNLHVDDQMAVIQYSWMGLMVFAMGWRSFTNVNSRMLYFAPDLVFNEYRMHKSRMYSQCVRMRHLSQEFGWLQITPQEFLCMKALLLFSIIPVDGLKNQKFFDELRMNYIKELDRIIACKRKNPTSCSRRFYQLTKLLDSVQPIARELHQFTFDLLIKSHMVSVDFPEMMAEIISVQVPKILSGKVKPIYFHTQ

| SMILES | EC50 [1, 3] [nM] | EC50 [2] [nM] | efficacy, % of DHT [2] [%] | more potent than LG0893410 and LG0893411 in activating hAR-responsive luciferase reporter ([1]; ratio of EC50) [times] | EC50 ([1]; read-out: EC50, activating hAR-responsive luciferase reporter; MDA-MB-453 cells, MMTV-LUC) [nM] | increase of skeletal α-actin promoter activity compared to vehicle control ([2]; concentration 1×10^−7 M) | more potent in stimulating muscle cells than LG0893410 and LG0893411 ([2]; ratio of EC50) |
| --- | --- | --- | --- | --- | --- | --- | --- |
| O=[N+]([O-])c1ccc(N2CCC[C@@H]2[C@@H](O)C(F)(F)F)cc1C(F)(F)F [LG0893410, R,R-2,2,2-trifluoro-1-[1-(4-nitro-3-trifluoromethyl-phenyl)-pyrrolidin-2-yl]-ethanol] | 24.2 | 45.2 | 43 |  |  |  |  |
| O=[N+]([O-])c1ccc(N2CCC[C@@H]2[C@H](O)C(F)(F)F)cc1C(F)(F)F [LG0893411, S, R-2,2,2-trifluoro-1-[1-(4-nitro-3-trifluoromethyl-phenyl)-pyrrolidin-2-yl]-ethanol] | 35 | 85.6 | 59 |  |  |  |  |
| N#Cc1ccc(N2CCC[C@@H]2[C@@H](O)C(F)(F)F)cc1C(F)(F)F [Compound 102, R,R-4-(2-(1-Hydroxyl-2,2,2-trifluoroethyl)-pyrrolidinyl)-2-trifluoromethyl-benzonitrile] |  | 8.7 | 93 | 8.5 to 12.5 | 2.8 | about 17.5 fold | 5-10 fold |
